Experimental data published in patent US20210251910A1, “FUMARIC ACID COMPOSITIONS WITH INCREASED BIOAVAILABILITY AND REDUCED SIDE EFFECTS” (Vitalis LLC, priority 2018, published 2021).

Experiments:
[1] = Example 2: comparative bioavailability, monomethyl fumarate plasma pharmacokinetics; type: in vivo, human; settings: normalized to 180 mg DMF
Protocol: The delayed-release capsules were placed on the subject's tongue. Subjects were instructed to suck the delayed-release capsule until the acetylsalicylic acid coating was dissolved or up to a maximum of 1 minute after the delayed-release capsule had been placed on the subject's tongue. The delayed-release capsule should not be chewed, bitten, or swallowed during that 1-minute period or until the coating is dissolved; only the saliva could be swallowed. The subject was instructed to give a hand sign once the acetylsalicylic acid coating was dissolved (the capsule should feel and taste different). […]

[2] = Example 1: flush rating (Global Flush Severity Scale) after DMF without aspirin, with swallowed aspirin or with intraoral aspirin; type: in vivo, human; settings: MS patients
Protocol: Seven human patients with multiple sclerosis who were already taking dimethyl fumarate and had experienced flushing side effects from dimethyl fumarate were recruited for this study. […] In Period I, each patient was given their standard dose of 240 mg dimethyl fumarate orally. Each patient was asked to rate his or her flush on the Global Flush Severity Scale (GFSS) (see Paolini et al. Int. J. Clin. Pract. 62(6):896-904 (2008)), when the flush completely resolved. The Global Flushing Severity Score measures, overall, in the previous 24 hours, how each patient rates the flushing symptoms, including redness, warmth, tingling, and itchiness of the skin. […] After the flush completely resolved, then each patient recorded his or her GFSS flush rating. Not until at least two days later did Period III start. At Period III, each patient was asked to not swallow the orally administered aspirin (162 mg) but to allow the aspirin to be absorbed through the oral mucosa. The aspirin was in powdered form and the remaining aspirin in the mouth was washed out with water. Afterwards, 240 mg of dimethyl fumarate was swallowed with a glass of water. Still, the flush was rated (GFSS) after it was resolved.

[3] = Example 3: flushing side effect, VTS-72 (205 mg DMF) vs Tecfidera; type: in vivo, human; settings: Example 3, co-administration of aspirin
Protocol: Flushing (including redness, warmth, tingling, and itchiness of the skin) was assessed at 0.5, 1, 1.5, 2, 2.5, 3, 3.5, and 4 hours post-dose using the question and the rating scale presented in Section—Flushing Assessment below. Half grades were not assigned. Flushing symptoms were recorded as adverse events.
Flushing was assessed using the question below. The question was asked by the clinical staff: • Question 1: Overall, at this moment, how would you rate your flushing symptoms (including redness, warmth, tingling, and itchiness of the skin)? Score from 0 to 10 (none 0, mild 1 to 3, moderate 4 to 6, severe 7 to 9, extreme 10).
16 healthy individuals were enrolled for this study.

[4] = Example 2: flushing assessment in crossover study, VTS-72 vs Tecfidera; type: in vivo, human; settings: Example 2 conclusion, co-administration of aspirin
Protocol: This was a single center, pilot, comparative bioavailability, open-label, randomized, single-dose, 2-period, 2-sequence, crossover study under fasting conditions. A total of 12 healthy adult male or female volunteers were included in this pilot study. For each period, subjects were confined from at least 10 hours before dosing until 12 hours post-dose. There was a washout of 7 days or more between doses. The washout period could be increased for logistical considerations. Participation of each subject in this study lasted approximately 9 days. Subjects were administered each treatment according to the 2-period, 2-sequence, block randomization scheme.
Treatment A: Subjects were required not to wear dentures or to remove their tongue piercing at the time of dosing. The delayed-release capsules were placed on the subject's tongue. Subjects were instructed to suck the delayed-release capsule until the acetylsalicylic acid coating was dissolved or up to a maximum of 1 minute after the delayed-release capsule had been placed on the subject's tongue. […]
Flushing (including redness, warmth, tingling, and itchiness of the skin) was assessed at 0.5, 1, 1.5, 2, 2.5, 3, 3.5, and 4 hours post-dose using the question and the rating scale presented in Section—Flushing Assessment below. […] Flushing symptoms were recorded as adverse events.
Flushing was assessed using the question below. […]

[5] = pretreatment with 325 mg aspirin for 4 days; Sheikh et al., Clin Ther. 2013; cited from earlier work

## CC(=O)Oc1ccccc1C(=O)O [aspirin, acetylsalicylic acid]
[1]
  impact of co-administration of aspirin on the Cmax of DMF: did not have significant impact
[2]; Period II: 162 mg aspirin orally swallowed followed by 240 mg dimethyl fumarate
  reduction of severity of flush (GFSS) as compared to Period I: 33%
[2]; Period III: 162 mg aspirin absorbed through the oral mucosa, then 240 mg dimethyl fumarate
  reduction of severity of flush (GFSS) as compared to Period I: 52%
[3]
  reduction of the flushing side effect: about 61%
[4]
  reduction of the flushing side effect: more than 35%
[5]
  effect of aspirin pretreatment on the pharmacokinetic profile of DMF: did not affect
